{
  "source": "patent US10689392B2",
  "about": "“Anti-cancer compounds targeting ral GTPases and methods of using the same” (The Regents of the University of Colorado, a body corporate, priority 2011, dated 2020)",
  "key": {"[1]": {"tested_on": "MiaPaCa2 pancreatic cell line", "settings": "cited from earlier work"}, "[2]": {"tested_on": "lung cancer cell lines A549, H2009, H358, H460, SW1573", "experiment": "Combination testing with MEK inhibitor AZD6244 in lung cancer cell lines", "assay_type": "cell-based, human", "settings": "in conjunction with MEK inhibitor AZD6244, lung cancer cell lines"}, "[3]": {"experiment": "Pharmacokinetics in mice after intraperitoneal or oral administration", "assay_type": "in vivo", "settings": "mouse, blood; for half-life: read-out: t½ (converted)", "experimental": "The pharmacokinetics of certain Ral-GTPase inhibiting compounds of the invention were evaluated in mice. Following intraperitoneal injection or oral administration, blood samples were collected over several hours and drug concentrations were evaluated by capillary coupled with Time of Flight (TOF) spectrometry."}, "[4]": {"tested_on": "bladder cancer cell lines CRL2169, J82, KU7, MGHU4, LULU2, UMUC3", "experiment": "Combination testing with MEK inhibitor AZD6244 in bladder cancer cell lines", "assay_type": "cell-based, human", "settings": "in conjunction with MEK inhibitor AZD6244, bladder cancer cell lines"}, "RalA": {"target": "T1, RalA (Homo sapiens, UniProt P11233)", "T1 construct": "Xenograft tumors were collected 2 h (RBC10) or 3 h (RBC8) after injection; from tissue; host or cells: H2122 human lung cancer xenograft tumours grown subcutaneously in female nude mice", "T1 sequence (P11233 1-206)": "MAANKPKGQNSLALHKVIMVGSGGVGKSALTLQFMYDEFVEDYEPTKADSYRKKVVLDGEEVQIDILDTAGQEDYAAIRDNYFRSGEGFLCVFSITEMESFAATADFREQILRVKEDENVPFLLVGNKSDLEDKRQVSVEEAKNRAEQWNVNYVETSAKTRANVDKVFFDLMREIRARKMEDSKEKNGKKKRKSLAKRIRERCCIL", "experiment": "RalA activity in H2122 xenograft tumors, RalBP1 pull-down", "assay_type": "in vivo, mice", "settings": "single IP dose 50 mg/Kg, tumors collected 2 h (RBC10) or 3 h (RBC8) after injection, FIG. 12A", "experimental": "(§1) Human lung cancer cell line H2122 was inoculated subcutaneously into female nude mice and allowed to grow until tumors reached an average size of 200 mm^3. Mice were given a single IP dose of 50 mg/Kg RBC8, RBC10, or DMSO control. Xenograft tumors were collected 2 h (RBC10) or 3 h (RBC8) after injection. RalA and RalB activity in tumors were measured by pull-down assay using RalBP1 agarose beads and normalized to total protein."}, "RalB": {"target": "T2, RalB (Homo sapiens, UniProt P11234)", "T2 construct": "Xenograft tumors were collected 2 h (RBC10) or 3 h (RBC8) after injection; from tissue; host or cells: H2122 human lung cancer xenograft tumours grown subcutaneously in female nude mice", "T2 sequence (P11234 1-206)": "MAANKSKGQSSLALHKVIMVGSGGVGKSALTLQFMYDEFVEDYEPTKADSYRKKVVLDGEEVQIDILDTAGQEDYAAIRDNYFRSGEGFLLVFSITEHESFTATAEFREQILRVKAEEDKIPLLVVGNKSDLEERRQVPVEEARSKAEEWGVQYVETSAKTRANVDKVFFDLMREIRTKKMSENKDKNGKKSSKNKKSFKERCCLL", "experiment": "RalB activity in H2122 xenograft tumors, RalBP1 pull-down", "assay_type": "in vivo, mice", "settings": "single IP dose 50 mg/Kg, tumors collected 2 h (RBC10) or 3 h (RBC8) after injection, FIG. 12B", "experimental": "as §1"}},
  "note": "Like-named read-outs stand apart in the source and are kept apart here.",
  "data": [
    {"smiles": "COC(=O)[C@H](CC(C)C)NC(=O)N1CCN(Cc2nc[nH]c2C)C(=O)[C@@H]1Cc1ccccc1", "note": "[GGTI-2417]", "values": [
      {"measurement": "in vitro growth and survival", "setting": "[1]", "value": "inhibit the in vitro growth and survival"}
    ]},
    {"smiles": "CCCCC(=O)N1c2ccccc2NC2=C(C(=O)CCC2)C1c1ccccc1Cl", "note": "(stereo not drawn) [RBC10, 11-(2-chlorophenyl)-10-pentanoyl-2,3,4,5,10,11-hexahydro-1H-dibenzo[b,e][1,4]diazepin-1-one]", "values": [
      {"measurement": "efficacy of the combination with AZD6244", "setting": "[2]", "value": "synergistic efficacy"},
      {"measurement": "AUC(0-inf)", "setting": "[3]; intraperitoneal (IP)", "value": 30500, "unit": "ng·h/mL"},
      {"measurement": "AUC(0-t)", "setting": "[3]; intraperitoneal (IP)", "value": 30300, "unit": "ng·h/mL"},
      {"measurement": "Cmax", "setting": "[3]; intraperitoneal (IP)", "value": 23.4, "unit": "µM"},
      {"measurement": "Tmax", "setting": "[3]; intraperitoneal (IP)", "value": 1, "unit": "h"},
      {"measurement": "half-life", "setting": "[3]; intraperitoneal (IP)", "value": 3.7, "unit": "h"},
      {"measurement": "AUC(0-inf)", "setting": "[3]; oral (PO)", "value": 5220, "unit": "ng·h/mL"},
      {"measurement": "AUC(0-t)", "setting": "[3]; oral (PO)", "value": 4750, "unit": "ng·h/mL"},
      {"measurement": "Cmax", "setting": "[3]; oral (PO)", "value": 2.3, "unit": "µM"},
      {"measurement": "Tmax", "setting": "[3]; oral (PO)", "value": 1, "unit": "h"},
      {"measurement": "half-life", "setting": "[3]; oral (PO)", "value": 1.9, "unit": "h"},
      {"measurement": "efficacy of the combination with AZD6244", "setting": "[4]", "value": "synergistic efficacy"},
      {"measurement": "RalA activity in tumors", "setting": "RalA", "value": "inhibition of RalA"},
      {"measurement": "RalB activity in tumors", "setting": "RalB", "value": "inhibition of RalB"}
    ]}
  ]
}
